Measurements from doi:10.1101/2022.02.21.481260v1 (biorxiv, 2022).
pIC50: −log10 of the molar value.

Biological target: T1, hFAP (recombinant human Fibroblast Activation Protein) (Homo sapiens, UniProt Q12884)
T1 sequence (Q12884 26-760 limits assumed): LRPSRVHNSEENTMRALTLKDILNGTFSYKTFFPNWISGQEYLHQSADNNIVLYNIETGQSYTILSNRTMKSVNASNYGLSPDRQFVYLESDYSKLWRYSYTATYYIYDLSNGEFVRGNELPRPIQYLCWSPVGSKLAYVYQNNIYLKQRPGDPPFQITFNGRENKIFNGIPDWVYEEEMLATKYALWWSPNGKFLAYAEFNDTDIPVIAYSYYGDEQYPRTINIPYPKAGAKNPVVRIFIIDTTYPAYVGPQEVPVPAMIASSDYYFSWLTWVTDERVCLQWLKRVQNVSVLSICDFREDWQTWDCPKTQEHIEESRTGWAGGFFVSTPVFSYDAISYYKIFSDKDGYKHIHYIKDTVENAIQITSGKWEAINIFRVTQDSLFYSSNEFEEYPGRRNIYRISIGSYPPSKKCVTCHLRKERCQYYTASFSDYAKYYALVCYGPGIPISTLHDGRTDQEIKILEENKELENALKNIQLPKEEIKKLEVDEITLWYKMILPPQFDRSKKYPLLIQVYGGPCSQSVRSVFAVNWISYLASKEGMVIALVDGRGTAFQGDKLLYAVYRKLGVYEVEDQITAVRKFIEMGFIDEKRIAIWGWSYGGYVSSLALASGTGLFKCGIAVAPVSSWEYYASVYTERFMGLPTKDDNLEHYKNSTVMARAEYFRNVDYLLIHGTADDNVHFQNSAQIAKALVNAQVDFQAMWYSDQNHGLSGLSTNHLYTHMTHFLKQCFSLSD
Assay: biochemical

pIC50: 9.40
SMILES: N#C[C@@H]1CC(F)(F)CN1C(=O)CNC(=O)c1ccnc2c(NC(=O)CCC(=O)NCCNC(=O)CCC(C(=O)O)N3CCN(CC(=O)O)CCN(CC(=O)O)CCN(CC(=O)O)CC3)cccc12 (stereo partly shown) [compound 1, OncoFAP-DOTAGA]
